Measurements as given in PMC9669019, “Molecular basis for integrin adhesion receptor binding to p21-activated kinase 4 (PAK4)” (Communications Biology, 2022).
Ends that are not written are not given here.

Assays:
PAK6 = test: In vitro phosphorylation of integrin β5 tail by PAK6; assay type: biochemical; conditions: in vitro kinase assay, Fig. 5a
PAK4-cat = test: Pull-down of purified recombinant PAK4-cat by His-tagged integrin tails on Ni-NTA beads; assay type: binding, human
Description: Pull down assays were performed as previously described[45],[60]. Briefly, constructs encoding an N-terminal His-tag followed by a helical region, a 4-glycine spacer, and an integrin cytoplasmic tail sequence were produced in BL21 (DE3) bacteria. Following bacterial cell lysis, recombinant protein was bound to Ni-NTA beads, eluted with imidazole, dialyzed and further purified by reverse-phase high-performance liquid chromatography (HPLC). Purified protein was lyophilized for storage and was used to coat fresh Ni-NTA beads to generate an affinity matrix for pull-down assays.
(§1) For pulldowns from cell lysates, human PAK4 constructs were generated in pEGFP (Takara Bio Inc.) by PCR amplification from a pLX304 PAK4 isoform 1 (Uniprot O96013-1) construct kindly provided by Michael Calderwood (Dana-Farber Cancer Institute). Mutations and deletions were introduced by QuikChange mutagenesis or PCR amplification. Chinese hamster ovary (CHO) cells were seeded on 10 cm tissue culture dishes and transiently transfected with GFP-tagged constructs using polyethylenimine (Polysciences). After 24 h, cells were harvested and lysed in buffer X (1 mM NaVO4, 50 mM NaF, 40 mM sodium pyrophosphate, 50 mM NaCl, 150 mM sucrose, 10 mM Pipes, pH 6.8) containing 0.5% Triton X-100, 0.2% deoxycholic acid, and complete EDTA-free protease inhibitor mixture (Roche, Indianapolis, IN, USA) for 15 min at 4 °C. After clarification by centrifugation, lysate was diluted in buffer X-T (buffer X with 0.05% Triton X-100) and incubated with His-tagged integrin tails coupled to Ni-NTA beads for 4 h with rocking at 4 °C. For experiments using purified PAK4cat, protein was incubated with His-tagged integrin tails coupled to Ni-NTA beads in buffer X-T for 2 h with rocking at 4 °C. Beads were then washed three times with buffer X-T, and bound proteins were fractionated by reducing SDS-PAGE and analyzed by immunoblotting with anti-GFP antibodies (600-101-215, Rockland). Immunoblots were imaged on an Odyssey IR imaging system (Li-Cor; Lincoln, NE, USA) and analyzed using Image Studio Lite (Li-Cor; Lincoln, NE, USA). For the quantification of binding from immunoblots, the fluorescence intensity of the band corresponding to bound material was quantified as a fraction of the fluorescence of the input material band for each condition. Loading of integrin tails was assessed by Coomassie Blue staining. Data were analyzed using GraphPad Prism.

PAK4cat = test: Radioactive kinase assay with MBP as substrate; assay type: biochemical, human; conditions: in vitro kinase assay, full-length tail 6-50 μM
Description: Impact of full-length cytosolic integrin β5 on kinase activity was assessed using a radioactive assay with myelin basic protein (MBP) as substrate. Assays were performed by addition of 0.1 µM of PAK4cat kinase, 2 µM of MBP, cytosolic full-length integrin β5 ^743–799 (50, 25, 12, and 6 μM), with 12 µM of cold ATP and 0.05 µCi of hot [γ33-P] ATP in Tris buffer (20 mM Tris-HCl (pH 8.0), 0.3 M NaCl, 1 mM TCEP, and 10 mM MgCl2) with a total volume of 25 µL. The reaction was conducted at 30 °C for 7–11 min then stopped by the addition of 5× sample buffer and analyzed by SDS-PAGE. Dried gels were analyzed by exposure to phosphor storage screen (GE Healthcare) followed by scanning using a Molecular Imager FX Pro Plus System (Bio-Rad) and quantified by optical densitometry Quantity One (Bio-Rad). Measurements were calculated from three independent experiments. Significant differences were calculated by Prism 7 (GraphPad Software) with ANOVA analysis. Impact of short integrin β5 peptide on kinase activity was assessed using a radioactive assay with a LIM kinase peptide (RKKRYTVVGN, LIMtide) as substrate. The concentration of PAK4 and LIMtide were kept constant at 0.2 and 50 µM, respectively. […] Duplicate measurements were calculated from three independent experiments. […]

PAK4 = target: T1, PAK4 (Homo sapiens, UniProt O96013); test: In vitro phosphorylation of integrin β5 tail by PAK4; assay type: biochemical; conditions: in vitro kinase assay, Fig. 5a
T1 construct: catalytic domain of PAK4 (UniProt ID:O96013) was sub-cloned into a modified pET28a vector; 6xHis (TEV-cleavable) (N); made in house; host or cells: E. coli BL21-CodonPlus(DE3)RILP
T1 sequence (O96013 321-572 limits assumed): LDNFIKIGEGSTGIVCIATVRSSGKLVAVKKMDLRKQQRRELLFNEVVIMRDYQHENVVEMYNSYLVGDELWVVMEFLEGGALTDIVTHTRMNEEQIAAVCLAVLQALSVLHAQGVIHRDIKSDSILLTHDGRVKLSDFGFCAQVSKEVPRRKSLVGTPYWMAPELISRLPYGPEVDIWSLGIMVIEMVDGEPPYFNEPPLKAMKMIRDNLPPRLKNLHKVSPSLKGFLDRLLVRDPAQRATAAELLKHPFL

GFP-PAK4-Δcat = test: GST-integrin β5 fusion pull-down of GFP-PAK4-Δcat expressed in cells; assay type: binding, human; conditions: Figure 1C source data
Description: as §1

GFP-PAK4-cat = test: GST-integrin β5 fusion pull-down of GFP-PAK4-cat expressed in cells; assay type: binding, human; conditions: Figure 1C source data
Description: as §1

integrin β5 cytoplasmic tail: Recombinant His-tagged integrin β5 cytoplasmic tail, residues 743–799 (KLLVTIHDRREFAKFQSERSRARYEMASNPLYRKPISTHTVDFTFNKFNKSYNGTVD; also: 6xHis tag)
Phosphorylation of integrin β5 by PAK6 (PAK6): does not display strong phosphorylation
PAK4Cat bound to tail (pull-down quantification) (PAK4-cat; 5 nM PAK4Cat, replicate 2): 4.211
PAK4Cat bound to tail (pull-down quantification) (PAK4-cat; 50 nM PAK4Cat, replicate 1): 47.6856
PAK4Cat bound to tail (pull-down quantification) (PAK4-cat; 50 nM PAK4Cat, replicate 2): 66.5041
PAK4Cat bound to tail (pull-down quantification) (PAK4-cat; 100 nM PAK4Cat, replicate 1): 90.1913
PAK4Cat bound to tail (pull-down quantification) (PAK4-cat; 100 nM PAK4Cat, replicate 2): 166.368
PAK4Cat bound to tail (pull-down quantification) (PAK4-cat; 200 nM PAK4Cat, replicate 1): 112.727
PAK4Cat bound to tail (pull-down quantification) (PAK4-cat; 200 nM PAK4Cat, replicate 2): 69.6949
PAK4Cat bound to tail (pull-down quantification) (PAK4-cat; 500 nM PAK4Cat, replicate 1): 260.384
PAK4Cat bound to tail (pull-down quantification) (PAK4-cat; 500 nM PAK4Cat, replicate 2): 185.982
PAK4Cat bound to tail (pull-down quantification) (PAK4-cat; 750 nM PAK4Cat, replicate 2): 239.04
PAK4Cat bound to tail (pull-down quantification) (PAK4-cat; 1000 nM PAK4Cat, replicate 1): 443.221
PAK4Cat bound to tail (pull-down quantification) (PAK4-cat; 1000 nM PAK4Cat, replicate 2): 367.326
PAK4Cat bound to tail (pull-down quantification) (PAK4-cat; 2000 nM PAK4Cat, replicate 2): 619.089
PAK4Cat bound to tail (pull-down quantification) (PAK4-cat; 2000 nM PAK4Cat, replicate 3): 750
PAK4Cat bound to tail (pull-down quantification) (PAK4-cat; 3000 nM PAK4Cat, replicate 1): 966.407
PAK4Cat bound to tail (pull-down quantification) (PAK4-cat; 3000 nM PAK4Cat, replicate 2): 705.982
PAK4Cat bound to tail (pull-down quantification) (PAK4-cat; 4000 nM PAK4Cat, replicate 2): 871.714
PAK4Cat bound to tail (pull-down quantification) (PAK4-cat; 5000 nM PAK4Cat, replicate 3): 875
PAK4Cat bound to tail (pull-down quantification) (PAK4-cat; Figure 1D source data, 5 nM PAK4Cat, replicate 1): 9.128
Effect on PAK4 catalytic activity (PAK4cat): suppression of catalytic activity
Kinase activity of PAK4 towards the integrin β5 tail (phosphorylation, words) (PAK4): negligible

B5 746-758: GST-fusion truncation of integrin β5 tail ending at residue 758 (VTIHDRREFAKFQ; also: GST fusion, end not given here; UniProt P18084 746-758, looked up, fragment)
PAK4 Nterm bound (pull-down quantification) (GFP-PAK4-Δcat; replicate 3): 0
PAK4 Nterm bound (pull-down quantification) (GFP-PAK4-Δcat; replicate 4): 0.03887
PAK4 Nterm bound (pull-down quantification) (GFP-PAK4-Δcat; replicate 5): 0.08311
PAK4 Nterm bound (pull-down quantification) (GFP-PAK4-Δcat; replicate 6): 0
PAK4 Nterm bound (pull-down quantification) (GFP-PAK4-Δcat; replicate 7): 0
PAK4 Cat bound (pull-down quantification) (GFP-PAK4-cat; bound band as fraction of input, replicate column 1 of 7): 0.2198
PAK4 Cat bound (pull-down quantification) (GFP-PAK4-cat; replicate column 6 of 7): 0.1642
PAK4 Cat bound (pull-down quantification) (GFP-PAK4-cat; replicate column 7 of 7): 0.1513

B5 746-762: GST-fusion truncation of integrin β5 tail ending at residue 762 (VTIHDRREFAKFQSERS; also: GST fusion, end not given here; UniProt P18084 746-762, looked up, fragment)
PAK4 Nterm bound (pull-down quantification) (GFP-PAK4-Δcat; replicate 6): 0
PAK4 Nterm bound (pull-down quantification) (GFP-PAK4-Δcat; replicate 7): 0
PAK4 Cat bound (pull-down quantification) (GFP-PAK4-cat; replicate column 6 of 7): 0.1712
PAK4 Cat bound (pull-down quantification) (GFP-PAK4-cat; replicate column 7 of 7): 0.5556
